Experiments:
IRF7 = experiment: Immunoblotting of IRF7 protein in TMD8 cells; assay type: cell-based, human; conditions: 48 hours, FIG. 6
Procedure: (§1) TMD8 human diffuse large B-cell lymphoma line was cultured in RPMI media supplemented with penicillin G (100 U/ml), streptomycin (100 μg/ml), 10% FBS in a humidified atmosphere of 5% CO2 maintained at 37° C. • (b) Drug Treatment
(§2) TMD8 cells were seeded prior to drug treatment. The following day, cells were treated with either DMSO (vehicle control) or MNK inhibitor (Compound 107) at the appropriate dose and time. • (c) Immunoblotting
(§3) Cells were spun down and washed with PBS and lysed in 1× RIPA buffer (Thermo Fisher) for 15 min at 4° C. Lysates were sonicated briefly and clarified by centrifugation for 15 min at 14,000 rpm and supernatants were collected. Protein concentration in the soluble fraction was determined by BCA protein assay (Thermo Scientific). 20 μg of protein were resolved on 4-20% Bis-Tris gradient gel (Invitrogen) and transferred to nitrocellulose membrane. The resulting blots were blocked for 1 hr at room temperature with Odyssey blocking solution (LI-COR) and then incubated with anti-phospho-eIF4E (Millipore), anti-eIF4E (Santa Cruz), anti-CCND3 (Cell Signaling) or anti-IRF7 (Cell Signaling) at 4° C. overnight. I3-actin was used as a loading control. […] The blots were then washed and scanned, specific proteins were detected by using the LI-COR Odyssey infrared imager. • (d) Non-Radioactive Nascent Protein Synthesis Assay

TMD8 cells [1] = experiment: Proliferation of TMD8 cells; assay type: cell-based; conditions: Homo sapiens
TMD8 cells [2] = experiment: Polysome profiling; assay type: cell-based, human; conditions: 0.3 or 10 μM, 3 or 48 hours
Procedure: TMD8 human diffuse large B-cell lymphoma line was cultured in RPMI media supplemented with penicillin G (100 U/ml), streptomycin (100 μg/ml), 10% FBS in a humidified atmosphere of 5% CO2 maintained at 37° C. • (b) Drug Treatment TMD8 cells were seeded prior to drug treatment. The following day, cells were treated with either DMSO (vehicle control) or MNK inhibitor (Compound 107) at the appropriate dose and time. • (c) Immunoblotting Cells were washed with cold PBS supplemented with cycloheximide and lysed with 1× mammalian cell lysis buffer for 10 minutes on ice. Lysates were clarified by centrifugation for 10 minutes at 14,000 rpm and supernatants were collected. The clarified lysate was loaded onto a 10-50% sucrose gradient containing 0.1 mg/ml cycloheximide (gradients were prepared using a BioComp Gradient Station) and centrifuged at 40,000 rpm for 2 hours at 4° C. using a SW40Ti rotor in a BECKMAN COULTER Optima L8-[…] ultra centrifuge. Polysome fractions were isolated using the BioComp Gradient Station. • (f) Ribosome Profiling

activated T cells = experiment: Cell surface PD-1 and LAG-3 on CD3/CD28 activated T cells; assay type: cell-based
TMD8 cells [3] = experiment: Ribosome profiling (translational rate RPF, translational efficiency, mRNA); assay type: cell-based, human; conditions: for # Genes Down Regulated / # Genes Up Regulated: 10 μM
Procedure: as §1, §2
Ribosomal profiling allows for measurement of changes in transcription and translation on a genome-wide basis accompanying inhibition of MNK with Compound 107 treatment of human DLBCL cells. Ribosome profiles of the Compound 107 treated TMD8 cells (about 3×10^6 cells/10 cm plate were harvested for ribosome profiling following drug treatment) were prepared and analyzed for changes in translational efficiencies with respect to potential disease-associated cellular changes accompanying MNK inhibition.
Briefly, cells were washed with cold PBS supplemented with cycloheximide and lysed with 1× mammalian cell lysis buffer for 10 minutes on ice. Lysates were clarified by centrifugation for 10 minutes at 14,000 rpm and supernatants were collected. Cell lysates were processed to generate ribosomal protected fragments and total mRNA according to the instructions included with the ARTSEQ Ribosome Profiling Kit (Illumina). Sequencing of total RNA (RNA) and of ribosome-protected fragments of RNA (RPF) was carried out using RNA-Seq methodology according to the manufacturer's instructions (Illumina). To analyze the ribosomal profiles, RNA-Seq reads were processed with tools from the FASTX-Toolkit (fastq quality trimmer, fastx clipper and fastx trimmer). Unprocessed and processed reads were evaluated for a variety of quality measures using FastQC. Processed reads were mapped to the human genome using Tophat. Gene-by-gene assessment of the number of fragments strictly and uniquely mapping to the coding region of each gene was conducted using HTSeq-count, a component of the HTSeq package. Differential analyses of Compound 107 treatment of TMD8 cells were carried out with the software packages DESeq for transcription (RNA counts) and translational rate (RPF counts) and BABEL (Olshen 2013) for translational efficiency based upon ribosomal occupancy (RPF counts) as a function of RNA level (RNA counts). The Log2 fold change in translational efficiency (TE) between drug treated and control is determined from the Log2 fold change difference in RPF and RNA values (drug treated versus to control).
Genes with low counts in either RPF or RNA were excluded from differential analyses. Biological process classification was done using Gene Ontology term analysis.
TMD8 cells were treated with DMSO or Compound 107 (0.3 or 10 μM) and cell lysates from two biological replicates were collected after 3 or 48 hours after treatment. The cell lysates were divided into two fractions and processed to quantitate the drug effects on the total mRNA (transcriptome) or RNase digested to generate the ribosome protected fragments (translatome). The raw sequencing counts were analyzed using DESeq analysis to determine differential expression or differential ribosome occupancy between DMSO and Compound 107 treatment and are reported as the loge fold change. Quantitation of the ribosome protected fragments (RPF) directly reflects the extent that a given transcript is bound by ribosomes and is a measure of the drug effects on translational rate.
Loge fold change in TE values are calculated from the difference in loge fold change in translational rate (RPF) between drug treated and control, and the loge fold change in total mRNA (drug treated vs. control). Evaluation of TE results in normalizing translation changes to transcript abundance. The statistical significance for TE values was determined using Babel software which was developed for assessing the significance of changes in translational regulation between conditions.

Cyclin D3 = experiment: Immunoblotting of cyclin D3 protein in TMD8 cells; assay type: cell-based, human; conditions: increasing concentrations, 48 hours
Procedure: as §1, §2, §3

eIF4F complex = experiment: eIF4G bound to eIF4E (eIF4F complex) in TMD8 cells; assay type: cell-based, human; conditions: increased concentrations
[4] = system: CD3/CD28 activated T cells; experiment: Cytokines/chemokines in CD3/CD28 activated T cells; assay type: cell-based
TMD8 cells [5] = experiment: Non-radioactive nascent protein synthesis assay (AHA incorporation); assay type: cell-based, human
Procedure: as §1, §2
Newly synthesized proteins were detected by using the CLICK-IT Biotin Protein Analysis Detection Kit (Life Technologies; C33372) according to the manufacturer's protocol. Briefly, cells were rinsed with PBS once and incubated in methionine-free media for 30 min in the presence of the compound before being pulsed with the nonradioactive azide-containing methionine analogue AHA for 2 hrs. Cell lysates were then collected for the labeling reactions. The newly synthesized, AHA-incorporated protein was crosslinked to alkyne-derivatized biotin by a copper (I)—catalyzed cycloaddition (CLICK-IT) according to the manufacturer's instructions (Life Technologies). Following the labeling reactions, proteins were precipitated and quantified and subsequently subjected to immunoblotting analysis. Anti-streptavidin-HRP was used to detect newly synthesized proteins that contained biotin-conjugated AHA. Amount of newly synthesized proteins can be quantified by densitometry. • (e) Polysome Profiling

TMD8 cells [6] = experiment: Cytokine/chemokine protein expression in TMD8 cells; assay type: cell-based, human
LAG-3 = LAG-3 protein expression in TMD8 cells; assay type: cell-based, human; conditions: data not shown
[7] = system: eIF4E phosphorylation (p-eIF4E); experiment: Immunoblotting of eIF4E phosphorylation in TMD8 cells; assay type: cell-based, human
Procedure: as §1, §2, §3

TMD8 cells [8] = experiment: Cell survival of TMD8 cells; assay type: cell-based, human; conditions: increasing concentrations, data not shown
[9] = 3 hour, Translational Efficiency
[10] = 3 hour, Translational Rate (RPF)
[11] = 48 hour, Translational Efficiency
[12] = 48 hour, Translational Rate (RPF)

Cc1cc(Nc2cc(N)ncn2)c(=O)n2c1C(=O)NC21CCCCC1.Cl [Compound 107]
IRF7 at the protein level (IRF7): decreased | EC50 (TMD8 cells [1]): 3300 nM | polysome to monosome distribution (TMD8 cells [2]): not observed to alter | cell surface levels of the immune checkpoint inhibitors PD-1 and LAG-3 (activated T cells; CD3/CD28 activated T cells): reduction | levels of PD-1 on the surface of activated T cells (activated T cells; data not shown): reduced | # Genes Down Regulated (TMD8 cells [3]; [9]): 24 | # Genes Up Regulated (TMD8 cells [3]; [9]): 27 | # Genes Down Regulated (TMD8 cells [3]; [10]): 58 | # Genes Up Regulated (TMD8 cells [3]; [10]): 64 | # Genes Down Regulated (TMD8 cells [3]; [11]): 31 | # Genes Up Regulated (TMD8 cells [3]; [11]): 15 | # Genes Down Regulated (TMD8 cells [3]; [12]): 123 | # Genes Up Regulated (TMD8 cells [3]; [12]): 92 | number of the 123 MNK-sensitive genes also down regulated at the mRNA expression level (TMD8 cells [3]; 48 hours, log2≤−0.75, p-value <0.01): 51 | number of genes selectively down regulated at the translational level in the absence of substantial transcript changes (TMD8 cells [3]; 48 hours, log2≤−0.75, p-value <0.05): 27 | translational efficiency of 3 hour gene set at 300 nM compared with 10 μM (TMD8 cells [3]; TMD8 cells, 3 hours, FIG. 7): equal or lesser extent | PD-1 translationally down regulated (TMD8 cells [3]; TMD8 cells, p-value=0.033, below significance cutoff): ~2 fold | cyclin D3 protein level (Cyclin D3): reduction in cyclin D3 | eIF4G bound to eIF4E (eIF4F complex): decrease | select cytokines/chemokines (TNFα, IL10, CXCL10) [4]: reduction | global protein synthesis rates (TMD8 cells [5]; 10 μM for 48 hours): modest reduction | global protein synthesis (TMD8 cells [5]; 0.3 or 10 μM for 3 hours and 0.3 μM for 48 hours): no impact | global protein synthesis (TMD8 cells [5]; 3 hour treatment duration): negligible effects | cytokines evaluated (TNFα, IL6, IL10) (TMD8 cells [6]; DLBCL cell line TMD8): modulation of one or more of the cytokines evaluated | cytokine/chemokine biomarkers (CXCL10, IL6 and IL10) at the protein expression level (TMD8 cells [6]; data not shown): down regulated | expression of LAG-3 at the protein level (LAG-3): selective decrease | EC50 ([7]; Homo sapiens, TMD8 cell line, study report ECB-003, read-out: EC50 for inhibition of p-eIF4E): 9.7 nM | inhibition of eIF4E phosphorylation (western blot) ([7]; TMD8 cells, 0.3-10 μM, 3 or 48 hours): essentially complete inhibition | cell survival (TMD8 cells [8]): promoted cell survival
